Experiment [1] has as its system Enterococcus faecium VanS (code 568). The conditions noted are these: E. faecium VanS code 568; 0.02% albumine bovine serum; read after 24 h. On the procedure:
(§1) MICs were performed using the broth microdilution methodology following the NCCLS procedure (NCCLS Document M7-A4 Vol. 17 No. 2 January 1997) in presence of 0.02% albumine bovine serum with inocula of approximately 5×10^5 cfu/mL. The media employed included cation-adjusted Mueller-Hinton (MH) broth (Difco Laboratories, Detroit, Mich., USA) supplemented or not with 30% (v/v) bovine serum. Tests were read after 24 h incubation at 25-37° C.

The subject of experiment [2] is S. haemolyticus Met-R (code 1729). The settings on record: 0.02% albumine bovine serum, read after 24 h. On the procedure:
as §1

Experiment [3] has as its system E. faecalisVanS (code 559). The settings on record: E. faecalis VanS code 559; 0.02% albumine bovine serum; read after 24 h. On the procedure:
as §1

Experiment [4] concerns S. haemolyticus Met-S (code 1730). The settings on record: 0.02% albumine bovine serum, read after 24 h. On the procedure:
as §1

Experiment [5] relates to C. albicans ATCC 90028 (code 145). The settings on record: 0.02% albumine bovine serum, read after 24 h. On the procedure: as §1
Experiment [6] deals with Staphylococcus aureus VISA (code 3798). The conditions noted are these: S. aureus VISA code 3798; 0.02% albumine bovine serum; read after 24 h. On the procedure:
as §1

Experiment [7] has as its system Staphylococcus aureus VISA Met-R (code 3797). The conditions noted are these: S. aureus VISA Met-R code 3797; 0.02% albumine bovine serum; read after 24 h. On the procedure: as §1
For experiment [8], the system named is Escherichia coli (code 47). The settings on record: 0.02% albumine bovine serum, read after 24 h. On the procedure:
as §1

Experiment [9] deals with E. faecalisVanA (code 560). The settings on record: E. faecalis VanA code 560; 0.02% albumine bovine serum; read after 24 h. On the procedure: as §1
The subject of the next experiment is S. pyogenes (code 49). The settings on record: 0.02% albumine bovine serum, read after 24 h. On the procedure:
as §1

In experiment [10] the test system is S. epidermidis ATCC12228 (code 147). The settings on record: 0.02% albumine bovine serum, read after 24 h. On the procedure: as §1
The test system of experiment [11] is E. faecium VanA (code 569). The settings on record: 0.02% albumine bovine serum, read after 24 h. On the procedure: as §1

Some results are limits rather than exact numbers.

As for `C=C1NC(=O)[C@H](C(C)C)NC(=O)[C@H](NC(=O)/C(=C/C)NC(=O)[C@@H](N)[C@@H](C)CC)CSC[C@@H](C(=O)N[C@H]2C(=O)N3CCC[C@H]3C(=O)NCC(=O)N[C@H](C(=O)N[C@H](C(=O)N[C@@H]3CSC[C@@H]4NC(=O)CNC(=O)[C@@H](CSC[C@@H]5NC(=O)[C@H](Cc6c[nH]cn6)NC(=O)[C@@H](CSC[C@@H](C(=O)O)NC5=O)NC4=O)NC(=O)CNC(=O)CNC(=O)CNC(=O)[C@H](CCC(=O)O)NC3=O)[C@@H](C)O)CS[C@H]2C)NC(=O)[C@H](Cc2c[nH]c3ccccc23)NC1=O` [Compound 97518, reference compound], the “Minimal Inhibitory Concentrations” value in experiment [1] is above 128 µg/mL; in experiment [2], 128 µg/mL; in experiment [3] it was 128 µg/mL; in experiment [4], 128 µg/mL; in experiment [5] it was 64 µg/mL; in experiment [6], above 128 µg/mL. Also, the “Minimal Inhibitory Concentrations” value is above 128 µg/mL in experiment [7]; above 128 µg/mL in experiment [8]; 128 µg/mL in experiment [9]; 0.25 µg/mL in the experiment on S. pyogenes (code 49); 64 µg/mL in [10]; above 128 µg/mL in experiment [11].
Regarding `C=C1NC(=O)[C@H](C(C)C)NC(=O)[C@H](NC(=O)/C(=C/C)NC(=O)[C@@H](N)[C@@H](C)CC)CSC[C@@H](C(=O)N[C@H]2C(=O)N3CCC[C@H]3C(=O)NCC(=O)N[C@H](C(=O)N[C@H](C(=O)N[C@@H]3CSC[C@@H]4NC(=O)CNC(=O)[C@@H](CSC[C@@H]5NC(=O)[C@H](Cc6c[nH]cn6)NC(=O)[C@@H](CSC[C@@H](C(=O)NCCCN(C)C)NC5=O)NC4=O)NC(=O)CNC(=O)CNC(=O)CNC(=O)[C@H](CCC(=O)NCCCN(C)C)NC3=O)[C@@H](C)O)CS[C@H]2C)NC(=O)[C@H](Cc2c[nH]c3ccccc23)NC1=O` [Compound 3], the “Minimal Inhibitory Concentrations” value in [1] was 2 µg/mL; in [2], 1 µg/mL; in experiment [3] it was 4 µg/mL; in [4], below 0.125 µg/mL; in experiment [5], 64 µg/mL; in experiment [6], 0.50 µg/mL. Besides, the “Minimal Inhibitory Concentrations” value in experiment [7] was 1 µg/mL; in [8], above 128 µg/mL; in experiment [9] it was 4 µg/mL; in the experiment with S. pyogenes (code 49), 2 µg/mL; in experiment [10] it was 2 µg/mL; in experiment [11], 1 µg/mL.
`C=C1NC(=O)[C@H](C(C)C)NC(=O)[C@H](NC(=O)/C(=C/C)NC(=O)[C@@H](N)[C@@H](C)CC)CSC[C@@H](C(=O)N[C@H]2C(=O)N3CCC[C@H]3C(=O)NCC(=O)N[C@H](C(=O)N[C@H](C(=O)N[C@@H]3CSC[C@@H]4NC(=O)CNC(=O)[C@@H](CSC[C@@H]5NC(=O)[C@H](Cc6c[nH]cn6)NC(=O)[C@@H](CSC[C@@H](C(=O)NCCN(C)C)NC5=O)NC4=O)NC(=O)CNC(=O)CNC(=O)CNC(=O)[C@H](CCC(=O)NCCN(C)C)NC3=O)[C@@H](C)O)CS[C@H]2C)NC(=O)[C@H](Cc2c[nH]c3ccccc23)NC1=O` [Compound 4]: the “Minimal Inhibitory Concentrations” value in [1] was 1 µg/mL; in experiment [2], 0.50 µg/mL; in experiment [3], 4 µg/mL; in experiment [4], below 0.125 µg/mL; in experiment [5] it was 64 µg/mL; in [6], 0.50 µg/mL. For the same compound, the “Minimal Inhibitory Concentrations” value in [7] is 0.50 µg/mL; in experiment [8] it was above 128 µg/mL; in experiment [9], 2 µg/mL; with S. pyogenes (code 49), 0.50 µg/mL; in experiment [10], 2 µg/mL; in [11], 1 µg/mL.
As for `C=C1NC(=O)[C@H](C(C)C)NC(=O)[C@H](NC(=O)/C(=C/C)NC(=O)[C@@H](N)[C@@H](C)CC)CSC[C@@H](C(=O)N[C@H]2C(=O)N3CCC[C@H]3C(=O)NCC(=O)N[C@H](C(=O)N[C@H](C(=O)N[C@@H]3CSC[C@@H]4NC(=O)CNC(=O)[C@@H](CSC[C@@H]5NC(=O)[C@H](Cc6c[nH]cn6)NC(=O)[C@@H](CSC[C@@H](C(=O)NCCCCN(C)C)NC5=O)NC4=O)NC(=O)CNC(=O)CNC(=O)CNC(=O)[C@H](CCC(=O)NCCCCN(C)C)NC3=O)[C@@H](C)O)CS[C@H]2C)NC(=O)[C@H](Cc2c[nH]c3ccccc23)NC1=O` [Compound 12], the “Minimal Inhibitory Concentrations” value in experiment [1] is 2 µg/mL; in experiment [2] it was 1 µg/mL; in [3] it was 8 µg/mL; in experiment [4] it was below 0.125 µg/mL; in [5] it was 64 µg/mL; in experiment [6], 1 µg/mL. Moreover, the “Minimal Inhibitory Concentrations” value in [7] was 2 µg/mL; in experiment [8], above 128 µg/mL; in experiment [9] it was 4 µg/mL; in the experiment on S. pyogenes (code 49), 0.50 µg/mL; in [10] it was 1 µg/mL; in [11], 1 µg/mL.
Take `C=C1NC(=O)[C@H](C(C)C)NC(=O)[C@H](NC(=O)/C(=C/C)NC(=O)[C@@H](N)[C@@H](C)CC)CSC[C@@H](C(=O)N[C@H]2C(=O)N3CCC[C@H]3C(=O)NCC(=O)N[C@H](C(=O)N[C@H](C(=O)N[C@@H]3CSC[C@@H]4NC(=O)CNC(=O)[C@@H](CSC[C@@H]5NC(=O)[C@H](Cc6c[nH]cn6)NC(=O)[C@@H](CSC[C@@H](C(=O)NC6CCCCC6)NC5=O)NC4=O)NC(=O)CNC(=O)CNC(=O)CNC(=O)[C@H](CCC(=O)NC4CCCCC4)NC3=O)[C@@H](C)O)CS[C@H]2C)NC(=O)[C@H](Cc2c[nH]c3ccccc23)NC1=O` [Compound 1]: the “Minimal Inhibitory Concentrations” value in experiment [1] came out at 2 µg/mL; in [2], 32 µg/mL; in experiment [3], 1 µg/mL; in [4] it was 4 µg/mL; in experiment [5], 64 µg/mL; in experiment [6], 2 µg/mL. Also, the “Minimal Inhibitory Concentrations” value in [7] is 4 µg/mL; in [8] it was above 128 µg/mL; in experiment [9], 1 µg/mL; in experiment [10], 2 µg/mL; in experiment [11], 2 µg/mL.
For the compound `C=C1NC(=O)[C@H](C(C)C)NC(=O)[C@H](NC(=O)/C(=C/C)NC(=O)[C@@H](N)[C@@H](C)CC)CSC[C@@H](C(=O)N[C@H]2C(=O)N3CCC[C@H]3C(=O)NCC(=O)N[C@H](C(=O)N[C@H](C(=O)N[C@@H]3CSC[C@@H]4NC(=O)CNC(=O)[C@@H](CSC[C@@H]5NC(=O)[C@H](Cc6c[nH]cn6)NC(=O)[C@@H](CSC[C@@H](C(=O)NCCCCCCCCCCCC)NC5=O)NC4=O)NC(=O)CNC(=O)CNC(=O)CNC(=O)[C@H](CCC(=O)NCCCCCCCCCCCC)NC3=O)[C@@H](C)O)CS[C@H]2C)NC(=O)[C@H](Cc2c[nH]c3ccccc23)NC1=O` [Compound 8], the “Minimal Inhibitory Concentrations” value in [1] came to 2 µg/mL; in experiment [2] it was 1 µg/mL; in experiment [3], 1 µg/mL; in [4] it was 1 µg/mL; in experiment [5], 0.25 µg/mL; in experiment [6], 1 µg/mL. Further, the “Minimal Inhibitory Concentrations” value in [7] came out at 2 µg/mL; in experiment [8] it was 2 µg/mL; in experiment [9], 1 µg/mL; in experiment [10], 1 µg/mL; in experiment [11] it was 2 µg/mL.

The record behind these values is patent publication US20120053115A1, “Lantibiotic Carboxyamide Derivatives With Enhanced Antibacterial Activity” (Sentinella Pharmaceuticals, Inc., priority 2008, published 2012).
